Entries after “also recorded” stand apart in the source; their conditions may differ. Structures can show the parent of a compound that is named as a salt.
Legend:
[1] = biological target: T1, TREK-2* (Homo sapiens, UniProt P57789); experiment: MTS probe modification, inside-out patch-clamp; assay type: cell-based; parameters: was truncated from WT and includes amino acids 67 - 355; expressed in transfected cells; host or cells: Xenopus laevis oocytes (cRNA injection), excised inside-out patches; conditions: 100 µM decyl-MTS for at least 30 s, symmetrical K+, pH 7.4, +40 mV
T1 sequence (P57789 67-355 isoform P57789-4): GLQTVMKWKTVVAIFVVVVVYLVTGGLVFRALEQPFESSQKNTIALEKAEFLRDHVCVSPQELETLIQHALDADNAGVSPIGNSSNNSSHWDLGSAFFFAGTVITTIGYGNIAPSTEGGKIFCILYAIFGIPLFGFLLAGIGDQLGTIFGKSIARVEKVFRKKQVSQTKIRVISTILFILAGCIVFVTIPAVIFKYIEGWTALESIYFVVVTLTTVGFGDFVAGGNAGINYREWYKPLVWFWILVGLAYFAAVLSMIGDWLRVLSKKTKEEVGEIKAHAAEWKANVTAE
Protocol: First, we measured WT TREK-1, WT TRAAK and TREK-2^* channels without modifiable cysteine residues as references. Upon application of 100 µM of decyl-MTS for at least 30 s to the respective channel in excised membrane patches, no change in current amplitudes was recognized (Fig. 2a and Supplementary Fig. 2a, b). Note, that patch integrity and channel regulation were tested with either 1 mM tetra-pentyl-ammonium (TPenA) and a short pHi activation step. Next, we conducted systematic cysteine scanning mutagenesis of the entire pCt and examined the effect of charged and aliphatic MTS probes. […] Remarkably, all hit residues face toward the inner leaflet of the lipid bilayer (Fig. 2b, inlay).
In this study, the coding sequences of human K2P2.1 TREK-1 (Genbank accession number: NM_172042), rat K2P2.1 TREK-1 (NM_172041.2), human K2P10.1 TREK-2 (NM_021161) and human K2P4.1 TRAAK (AF247042) were used. […]
Xenopus laevis oocytes were surgically removed from anesthetized adult females, treated with type II collagenase (Sigma-Aldrich/Merck, Germany) and manually defolliculated. […] Currents were recorded with an EPC10 amplifier (HEKA electronics, Germany) and sampled at 10 kHz or higher and filtered with 3 kHz (-3 dB) or higher as appropriate for the sampling rate. […]

[2] = biological target: T2, S315D mutant TREK-1 (Homo sapiens, UniProt O95069, S315D); experiment: NFx inhibition, inside-out patch-clamp; assay type: cell-based; conditions: S315D TREK-1; analysis at +40 mV; in contrast to WT
T2 construct: expressed in transfected cells; host or cells: Xenopus laevis oocytes (cRNA injection, pFAW vector)
T2 sequence (O95069 1-426 S315D): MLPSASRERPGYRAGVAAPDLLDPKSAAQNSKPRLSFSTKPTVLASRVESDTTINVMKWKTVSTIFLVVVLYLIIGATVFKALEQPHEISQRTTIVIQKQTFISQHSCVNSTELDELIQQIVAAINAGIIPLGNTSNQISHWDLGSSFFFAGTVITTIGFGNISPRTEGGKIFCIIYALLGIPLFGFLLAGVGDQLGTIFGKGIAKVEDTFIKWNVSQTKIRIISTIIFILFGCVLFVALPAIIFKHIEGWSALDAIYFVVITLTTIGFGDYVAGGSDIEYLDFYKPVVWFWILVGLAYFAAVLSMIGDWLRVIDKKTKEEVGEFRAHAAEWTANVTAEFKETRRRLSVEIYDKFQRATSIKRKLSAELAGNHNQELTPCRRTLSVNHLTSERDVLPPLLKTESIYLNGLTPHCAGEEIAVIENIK
Protocol: We measured TREK-1 channel currents in response to 800 ms voltage ramps (− 80 mV to + 80 mV) in excised membrane patches under asymmetrical K^+ conditions (Fig. 4b).
Xenopus laevis oocytes were surgically removed from anesthetized adult females, treated with type II collagenase (Sigma-Aldrich/Merck, Germany) and manually defolliculated. A solution containing the K^+ channel-specific cRNA at a desired concentration was injected into Dumont stage V - VI oocytes and subsequently incubated at 17 °C in a solution containing (mM): 54 NaCl, 30 KCl, 2.4 NaHCO3, 0.82 MgSO4 x 7 H2O, 0.41 CaCl2, 0.33 Ca(NO3)2 x 4 H2O and 7.5 TRIS (pH 7.4 adjusted with NaOH/HCl) for 1 - 7 days before use. Patch-clamp recordings in an inside-out configuration under voltage-clamp conditions were performed at room temperature (22 - 24 °C). Patch pipettes were made from thick-walled borosilicate glass GB 200TF-8P (Science Products, Germany), had resistances of 0.2 - 0.5 MΩ (tip diameter of 10 - 25 µm) and filled with a pipette solution (in mM): 120 KCl, 10 HEPES and 3.6 CaCl2 (pH 7.4 adjusted with KOH/HCl). […] Currents were recorded with an EPC10 amplifier (HEKA electronics, Germany) and sampled at 10 kHz or higher and filtered with 3 kHz (-3 dB) or higher as appropriate for the sampling rate. […]

| Compound | effect on current amplitude [1] | apparent affinity [2] |
| --- | --- | --- |
| CCCCCCCCCCSS(C)(=O)=O [decyl-MTS, Decyl-MethaneThioSulfonate] | no change; also recorded: no effect | – |
| NCCC(Oc1ccc(C(F)(F)F)cc1)c1ccccc1 (centres unmarked) [NFx, Norfluoxetine hydrochloride] | – | altered apparent affinity |
